Results as given in ChEMBL document CHEMBL3124876, “A perylene derivative regulates HIF-1α and Stat3 signaling pathways” (Bioorg Med Chem, 2014).
Active and inactive are the calls of the source. No cut-off for these calls is given here.

Tests used:
Mus musculus = experiment: Toxicity in Balb nu/nu mouse assessed as change in body weight at 2 mg/kg, ip administered every other day for 10 days measured after 19 days; assay type: organism-based; set-up: dose 2 mg/kg, route intraperitoneal; settings: in vivo, 456 h
[1] = molecular target: Hypoxia-inducible factor 1-alpha (Homo sapiens) (UniProt Q16665); experiment: Inhibition of HIF-1alpha in human MDA-MB-231 cells at 10 uM after 18 hrs by Western blotting analysis in hypoxia condition; assay type: cell-based
[2] = molecular target: Signal transducer and activator of transcription 3 (Homo sapiens) (UniProt P40763); settings: MDA-MB-468, 1 to 20 uM
Description: Inhibition of Stat3 phosphorylation in human MDA-MB-468 cells assessed as inhibition of Bcl2 expression at 1 to 20 uM by Western blotting analysis in normoxia condition

[3] = molecular target: T1, Signal transducer and activator of transcription 1-alpha/beta (Homo sapiens) (UniProt P42224); experiment: Inhibition of Stat1 phosphorylation in human MDA-MB-231 cells at 0.05 to 10 uM by Western blotting analysis; assay type: cell-based
T1 sequence (whole entry): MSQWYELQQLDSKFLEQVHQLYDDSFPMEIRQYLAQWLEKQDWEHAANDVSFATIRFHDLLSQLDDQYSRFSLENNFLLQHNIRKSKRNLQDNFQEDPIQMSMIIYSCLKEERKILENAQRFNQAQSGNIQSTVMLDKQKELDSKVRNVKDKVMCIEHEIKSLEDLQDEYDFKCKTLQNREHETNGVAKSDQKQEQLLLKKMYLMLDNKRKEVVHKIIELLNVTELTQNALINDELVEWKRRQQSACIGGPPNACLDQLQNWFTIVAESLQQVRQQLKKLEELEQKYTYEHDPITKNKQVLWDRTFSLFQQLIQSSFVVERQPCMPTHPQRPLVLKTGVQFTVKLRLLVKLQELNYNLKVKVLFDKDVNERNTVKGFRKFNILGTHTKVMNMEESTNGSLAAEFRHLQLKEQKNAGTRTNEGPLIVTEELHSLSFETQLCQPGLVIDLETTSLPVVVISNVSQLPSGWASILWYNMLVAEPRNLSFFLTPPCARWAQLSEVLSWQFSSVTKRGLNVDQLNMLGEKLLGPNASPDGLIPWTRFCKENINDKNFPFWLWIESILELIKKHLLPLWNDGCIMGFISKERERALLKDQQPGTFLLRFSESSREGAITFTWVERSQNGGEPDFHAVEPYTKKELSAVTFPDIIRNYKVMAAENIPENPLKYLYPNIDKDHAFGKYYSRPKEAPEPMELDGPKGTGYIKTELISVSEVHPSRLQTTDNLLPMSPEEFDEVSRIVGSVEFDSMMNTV

[4] = molecular target: Signal transducer and activator of transcription 3 (Homo sapiens) (UniProt P40763); settings: 10 uM
Description: Inhibition of STAT3 (unknown origin) assessed as total STAT3 level at 10 uM after 6 hrs by cell-based Western blotting analysis

[5] = molecular target: Aryl hydrocarbon receptor nuclear translocator (Homo sapiens) (UniProt P27540); experiment: Inhibition of HIF-1 beta in human MDA-MB-231 cells at 1 to 20 uM by Western blotting analysis; assay type: cell-based
MCF7 [6] = experiment: Induction of apoptosis in human MCF7 cells assessed as reduction in cell viability at 10 uM after 12 to 48 hrs by MTT assay; assay type: functional, cell-based
[7] = molecular target: Histone acetyltransferase p300 (Homo sapiens) (UniProt Q09472); experiment: Inhibition of P300 in human MDA-MB-468 cells at 1 to 20 uM by Western blotting analysis; assay type: cell-based
[8] = molecular target: Endothelial PAS domain-containing protein 1 (Homo sapiens) (UniProt Q99814); experiment: Inhibition of HIF-2 alpha in human MDA-MB-468 cells at 1 to 20 uM by Western blotting analysis in hypoxia condition; assay type: cell-based
OVCAR-3 = experiment: Reduction of total Stat3 level in human OVCAR3 cells at 1 to 20 uM by Western blotting analysis; assay type: functional, cell-based
MDA-MB-468 [9] = experiment: Reduction of total Stat3 level in human MDA-MB-468 cells at 1 to 20 uM by Western blotting analysis; assay type: functional, cell-based
[10] = molecular target: Hypoxia-inducible factor 1-alpha (Homo sapiens) (UniProt Q16665); experiment: Inhibition of HIF-1 alpha in human MDA-MB-468 cells assessed as proteasomal degradation at 4 to 7 uM after 18 hrs by immunoblotting analysis in hypoxia condition; assay type: cell-based
[11] = molecular target: Tyrosine-protein kinase JAK2 (Homo sapiens) (UniProt O60674); experiment: Inhibition of JAK2 phosphorylation in human MDA-MB-231 cells at 0.05 to 10 uM by Western blotting analysis; assay type: cell-based
MDA-MB-468 [12] = experiment: Induction of apoptosis in human MDA-MB-468 cells assessed as reduction in cell viability at 1 to 10 uM by MTT assay; assay type: functional, cell-based
[13] = molecular target: Hypoxia-inducible factor 1-alpha (Homo sapiens) (UniProt Q16665); experiment: Inhibition of HIF-1 alpha in human PC3 cells after 18 hrs by Western blotting analysis in hypoxia condition; assay type: cell-based; settings: PC-3
MCF7 [14] = experiment: Induction of apoptosis in human MCF7 cells assessed as reduction in cell viability at 8 uM after 12 to 48 hrs by MTT assay; assay type: functional, cell-based
[15] = molecular target: Hypoxia-inducible factor 1-alpha (Homo sapiens) (UniProt Q16665); experiment: Inhibition of HIF-1 alpha in human MDA-MB-468 cells assessed as proteasomal degradation at 4 to 7 uM after 18 hrs by immunoblotting analysis in hypoxia condition in presence of MG132; assay type: cell-based
[16] = molecular target: RAC-alpha serine/threonine-protein kinase (Homo sapiens) (UniProt P31749); experiment: Inhibition of AKT phosphorylation in human PANC1 cells at 1 to 20 uM by Western blotting analysis; assay type: cell-based; settings: PANC-1
MDA-MB-231 [17] = experiment: Induction of apoptosis in human MDA-MB-231 cells assessed as reduction in cell viability at 1 to 10 uM by MTT assay; assay type: functional, cell-based
PANC-1 [18] = experiment: Inhibition of ERK phosphorylation in human PANC1 cells at 1 to 20 uM by Western blotting analysis; assay type: cell-based
[19] = Induction of apoptosis in human MCF10A cells assessed as reduction in cell viability at 1 to 10 uM by MTT assay; assay type: cell-based; settings: mcf-10a
[20] = Reduction of HIF-1 alpha mRNA expression in human PANC1 cells at 5 to 10 uM by qRT-PCR analysis; assay type: functional, cell-based; settings: PANC-1
MDA-MB-468 [21] = experiment: Inhibition of HIF-1 in human MDA-MB-468 cells assessed as reduction of GLUT1 mRNA expression at 5 to 10 uM by RT-PCR analysis in hypoxia condition; assay type: cell-based
[22] = molecular target: Signal transducer and activator of transcription 3 (Homo sapiens) (UniProt P40763); settings: PANC-1, 0.5 to 20 uM
Description: Inhibition of Stat3 phosphorylation in human PANC1 cells assessed as inhibition of Bcl2 expression at 0.5 to 20 uM by Western blotting analysis in hypoxia condition

[23] = molecular target: Hypoxia-inducible factor 1-alpha (Homo sapiens) (UniProt Q16665); experiment: Inhibition of HIF-1 alpha in human PANC1 cells after 18 hrs by Western blotting analysis in hypoxia condition in presence of T40214; assay type: cell-based; settings: PANC-1
Homo sapiens = species on record: Homo sapiens; experiment: Inhibition of telomerase (unknown origin)
PANC-1 [24] = experiment: Antitumor activity against human PANC1 cells xenografted in Balb nu/nu mouse assessed as tumor regression at 2 mg/kg, ip administered every other day for 10 days measured after 19 days; assay type: functional, organism-based; set-up: dose 2 mg/kg
[25] = molecular target: Hypoxia-inducible factor 1-alpha (Homo sapiens) (UniProt Q16665); experiment: Inhibition of HIF-1 alpha in human PANC1 cells assessed as inhibition of Bcl2 expression at 1 to 20 uM by Western blotting analysis in hypoxia condition; assay type: cell-based; settings: PANC-1
MDA-MB-231 [26] = experiment: Antitumor activity against human MDA-MB-231 cells xenografted in Balb nu/nu mouse assessed as reduction in tumor growth at 5 mg/kg, po administered every other day for 10 days; assay type: functional, organism-based; set-up: dose 5 mg/kg

Hypoxia-inducible factor 1-alpha (Homo sapiens), sequence (Q16665 whole entry, looked up): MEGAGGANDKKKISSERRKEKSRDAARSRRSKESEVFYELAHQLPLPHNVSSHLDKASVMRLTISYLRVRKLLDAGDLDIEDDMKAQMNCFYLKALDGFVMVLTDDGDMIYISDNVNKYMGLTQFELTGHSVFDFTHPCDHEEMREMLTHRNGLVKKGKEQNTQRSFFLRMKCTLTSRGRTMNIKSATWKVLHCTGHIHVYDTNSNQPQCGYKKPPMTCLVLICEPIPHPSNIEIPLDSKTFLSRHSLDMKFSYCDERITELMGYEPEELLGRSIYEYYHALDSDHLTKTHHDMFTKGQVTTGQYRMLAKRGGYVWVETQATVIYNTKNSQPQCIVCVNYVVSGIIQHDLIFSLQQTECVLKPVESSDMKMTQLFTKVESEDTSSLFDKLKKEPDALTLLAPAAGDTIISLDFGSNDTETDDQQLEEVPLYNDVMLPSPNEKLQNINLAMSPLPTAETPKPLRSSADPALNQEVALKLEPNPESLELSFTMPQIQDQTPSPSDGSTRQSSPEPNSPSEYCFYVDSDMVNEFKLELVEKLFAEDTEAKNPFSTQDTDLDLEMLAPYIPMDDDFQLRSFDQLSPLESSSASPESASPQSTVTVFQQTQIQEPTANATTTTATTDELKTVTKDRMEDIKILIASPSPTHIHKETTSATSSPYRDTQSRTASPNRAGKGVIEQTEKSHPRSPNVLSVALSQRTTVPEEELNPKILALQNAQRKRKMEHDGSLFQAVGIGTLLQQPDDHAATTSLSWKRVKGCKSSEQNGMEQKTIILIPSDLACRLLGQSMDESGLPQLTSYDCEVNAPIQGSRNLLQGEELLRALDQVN
Signal transducer and activator of transcription 3 (Homo sapiens), sequence (P40763 whole entry): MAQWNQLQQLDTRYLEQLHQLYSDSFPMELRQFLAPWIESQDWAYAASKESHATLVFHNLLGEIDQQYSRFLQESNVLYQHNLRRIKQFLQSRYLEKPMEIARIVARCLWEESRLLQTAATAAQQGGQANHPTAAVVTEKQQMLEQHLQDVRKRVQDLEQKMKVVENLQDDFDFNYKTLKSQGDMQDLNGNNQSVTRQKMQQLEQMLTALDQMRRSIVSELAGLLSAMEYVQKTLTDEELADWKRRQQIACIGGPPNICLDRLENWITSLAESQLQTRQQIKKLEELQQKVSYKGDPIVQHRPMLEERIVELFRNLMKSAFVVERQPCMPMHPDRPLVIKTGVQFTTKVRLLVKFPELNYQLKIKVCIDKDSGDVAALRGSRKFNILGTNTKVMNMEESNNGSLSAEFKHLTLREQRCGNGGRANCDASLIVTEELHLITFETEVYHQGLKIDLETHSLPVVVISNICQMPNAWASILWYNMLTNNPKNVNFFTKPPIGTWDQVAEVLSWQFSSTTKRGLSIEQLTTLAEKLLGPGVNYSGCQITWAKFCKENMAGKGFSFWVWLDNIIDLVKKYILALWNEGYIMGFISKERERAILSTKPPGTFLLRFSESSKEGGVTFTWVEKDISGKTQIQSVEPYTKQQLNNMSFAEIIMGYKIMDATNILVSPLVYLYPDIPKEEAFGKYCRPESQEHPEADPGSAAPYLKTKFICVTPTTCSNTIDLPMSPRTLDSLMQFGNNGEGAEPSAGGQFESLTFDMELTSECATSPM
Endothelial PAS domain-containing protein 1 (Homo sapiens), sequence (Q99814 whole entry, the tested form may be a part): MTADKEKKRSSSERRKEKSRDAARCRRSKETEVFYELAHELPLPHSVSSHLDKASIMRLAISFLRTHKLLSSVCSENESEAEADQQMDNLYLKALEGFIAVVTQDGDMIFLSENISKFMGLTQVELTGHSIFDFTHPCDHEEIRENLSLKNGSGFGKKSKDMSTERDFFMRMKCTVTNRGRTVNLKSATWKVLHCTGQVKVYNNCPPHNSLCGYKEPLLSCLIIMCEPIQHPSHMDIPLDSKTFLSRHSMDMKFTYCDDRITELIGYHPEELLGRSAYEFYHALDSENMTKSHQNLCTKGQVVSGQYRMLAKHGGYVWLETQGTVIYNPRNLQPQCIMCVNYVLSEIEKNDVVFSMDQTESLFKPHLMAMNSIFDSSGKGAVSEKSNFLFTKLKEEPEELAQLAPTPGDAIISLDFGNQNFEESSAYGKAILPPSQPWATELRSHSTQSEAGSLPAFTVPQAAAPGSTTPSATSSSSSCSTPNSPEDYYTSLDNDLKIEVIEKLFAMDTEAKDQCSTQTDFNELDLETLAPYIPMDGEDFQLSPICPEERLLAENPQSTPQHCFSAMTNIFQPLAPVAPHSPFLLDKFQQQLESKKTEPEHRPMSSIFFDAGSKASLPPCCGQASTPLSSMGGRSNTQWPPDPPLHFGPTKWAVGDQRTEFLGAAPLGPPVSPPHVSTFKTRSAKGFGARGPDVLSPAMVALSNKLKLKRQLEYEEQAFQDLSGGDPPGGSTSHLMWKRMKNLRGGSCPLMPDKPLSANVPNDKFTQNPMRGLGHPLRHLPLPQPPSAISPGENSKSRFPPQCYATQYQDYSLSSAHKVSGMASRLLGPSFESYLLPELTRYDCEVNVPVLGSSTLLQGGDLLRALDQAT
Histone acetyltransferase p300 (Homo sapiens), sequence (Q09472 whole entry, the tested form may be a part): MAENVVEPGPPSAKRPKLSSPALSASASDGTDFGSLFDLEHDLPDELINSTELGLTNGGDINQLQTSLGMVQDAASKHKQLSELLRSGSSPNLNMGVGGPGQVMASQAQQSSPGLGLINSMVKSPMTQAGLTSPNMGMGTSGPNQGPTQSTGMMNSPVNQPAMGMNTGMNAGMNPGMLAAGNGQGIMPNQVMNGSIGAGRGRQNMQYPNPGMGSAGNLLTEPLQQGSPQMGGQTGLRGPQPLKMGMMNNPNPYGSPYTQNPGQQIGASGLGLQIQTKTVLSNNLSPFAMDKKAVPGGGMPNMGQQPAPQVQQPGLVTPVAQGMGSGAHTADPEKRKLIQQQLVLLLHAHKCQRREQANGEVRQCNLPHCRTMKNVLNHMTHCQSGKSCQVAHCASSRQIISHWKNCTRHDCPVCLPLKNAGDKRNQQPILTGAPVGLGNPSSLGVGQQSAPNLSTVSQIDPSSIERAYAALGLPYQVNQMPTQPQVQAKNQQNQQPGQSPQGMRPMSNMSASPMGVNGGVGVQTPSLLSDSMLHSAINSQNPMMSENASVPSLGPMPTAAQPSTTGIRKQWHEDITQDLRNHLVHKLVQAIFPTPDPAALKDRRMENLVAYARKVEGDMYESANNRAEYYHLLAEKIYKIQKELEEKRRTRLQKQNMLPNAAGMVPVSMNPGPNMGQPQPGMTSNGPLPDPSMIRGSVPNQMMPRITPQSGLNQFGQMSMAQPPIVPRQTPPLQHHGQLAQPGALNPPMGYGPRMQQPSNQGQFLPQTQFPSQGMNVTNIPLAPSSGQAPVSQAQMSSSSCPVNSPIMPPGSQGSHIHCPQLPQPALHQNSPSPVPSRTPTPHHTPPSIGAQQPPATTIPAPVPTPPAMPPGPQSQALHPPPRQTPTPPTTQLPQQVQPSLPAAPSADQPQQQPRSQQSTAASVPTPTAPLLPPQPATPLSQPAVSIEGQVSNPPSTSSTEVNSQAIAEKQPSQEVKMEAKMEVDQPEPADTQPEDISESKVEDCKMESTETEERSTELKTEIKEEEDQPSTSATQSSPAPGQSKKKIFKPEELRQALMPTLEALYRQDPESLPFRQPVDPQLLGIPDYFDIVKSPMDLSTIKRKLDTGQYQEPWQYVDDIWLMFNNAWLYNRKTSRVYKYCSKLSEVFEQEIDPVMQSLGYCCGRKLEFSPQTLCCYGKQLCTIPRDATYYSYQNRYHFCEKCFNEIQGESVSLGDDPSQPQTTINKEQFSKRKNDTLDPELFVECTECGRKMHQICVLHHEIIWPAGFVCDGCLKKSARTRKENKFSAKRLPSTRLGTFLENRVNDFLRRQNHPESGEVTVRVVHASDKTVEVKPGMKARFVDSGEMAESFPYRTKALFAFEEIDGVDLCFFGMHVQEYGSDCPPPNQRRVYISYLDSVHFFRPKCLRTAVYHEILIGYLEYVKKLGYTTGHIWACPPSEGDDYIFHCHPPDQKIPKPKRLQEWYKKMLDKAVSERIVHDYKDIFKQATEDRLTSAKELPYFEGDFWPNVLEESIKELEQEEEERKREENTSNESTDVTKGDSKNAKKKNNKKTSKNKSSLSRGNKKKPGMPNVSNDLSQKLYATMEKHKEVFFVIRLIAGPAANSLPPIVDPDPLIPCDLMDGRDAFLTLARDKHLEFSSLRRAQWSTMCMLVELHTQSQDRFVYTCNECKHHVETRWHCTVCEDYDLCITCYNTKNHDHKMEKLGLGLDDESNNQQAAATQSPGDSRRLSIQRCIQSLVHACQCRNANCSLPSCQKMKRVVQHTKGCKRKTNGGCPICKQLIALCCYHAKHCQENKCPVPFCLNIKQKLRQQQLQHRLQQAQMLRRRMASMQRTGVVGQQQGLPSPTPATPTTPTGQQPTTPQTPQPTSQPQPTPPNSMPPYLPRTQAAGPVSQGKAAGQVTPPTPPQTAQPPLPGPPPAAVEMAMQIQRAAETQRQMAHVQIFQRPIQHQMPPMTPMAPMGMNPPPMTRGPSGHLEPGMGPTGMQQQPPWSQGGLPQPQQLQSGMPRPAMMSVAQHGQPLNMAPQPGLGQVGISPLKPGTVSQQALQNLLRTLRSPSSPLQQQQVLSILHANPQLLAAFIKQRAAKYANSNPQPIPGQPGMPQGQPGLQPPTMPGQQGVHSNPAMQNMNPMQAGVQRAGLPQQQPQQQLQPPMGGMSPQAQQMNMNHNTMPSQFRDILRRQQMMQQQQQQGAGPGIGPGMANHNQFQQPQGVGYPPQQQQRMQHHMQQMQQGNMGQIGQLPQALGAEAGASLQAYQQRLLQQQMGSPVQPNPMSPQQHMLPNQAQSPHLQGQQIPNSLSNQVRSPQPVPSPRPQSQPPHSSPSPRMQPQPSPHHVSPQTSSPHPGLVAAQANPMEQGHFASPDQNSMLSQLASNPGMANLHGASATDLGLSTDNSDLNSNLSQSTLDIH

CN(C)CCCN1C(=O)c2ccc3c4ccc5c6c(ccc(c7ccc(c2c37)C1=O)c64)C(=O)N(CCCN(C)C)C5=O
Activity (Mus musculus): Non-toxic | inhibition [1]: Active | inhibition [2]: Active | inhibition [3]: inactive | inhibition [4]: inactive | inhibition [5]: inactive | Activity (MCF7 [6]): Active | inhibition [7]: inactive | inhibition [8]: Active | Activity (OVCAR-3): Active | Activity (MDA-MB-468 [9]): Active | inhibition [10]: Active | inhibition [11]: inactive | Activity (MDA-MB-468 [12]): Active | inhibition [13]: Active | Activity (MCF7 [14]): Active | inhibition [15]: Active | inhibition [16]: inactive | Activity (MDA-MB-231 [17]): Active | inhibition (PANC-1 [18]): inactive | Activity [19]: Non-toxic | Activity [20]: inactive | inhibition (MDA-MB-468 [21]): Active | inhibition [22]: Active | inhibition [23]: Active | inhibition (Homo sapiens): Active | Activity (PANC-1 [24]): Active | inhibition [25]: Active | Activity (MDA-MB-231 [26]): Active
